Data on 34 compounds can be found in patent publication US7087768B2, “Fumagillol derivatives and preparing method thereof” (Equispharm Co., Ltd., priority 2001, dated 2006).

Converted amounts (≈) assume the structure as drawn.

In the first assay the test system is HUVECs (human umbilical vein endothelial cells). The experiment in a line: Inhibitory effect of fumagillol derivative on HUVEC cell growth (colorimetry). It is filed as cell-based. To be noted: Homo sapiens, HUVEC. The protocol: Using the HUVECs (human umbilical vein endothelial), the effect of the fumagillol derivative of the present invention on cell growth was evaluated.
The HUVECs were added to M199 medium supplemented with 20% FBS (fetal bovine serum), 100 U/ml penicillin, 100 μg/ml streptomycin, 1.5 g/L sodium bicarbonate, 0.1 mg/ml endothelial cell growth supplement (Sigma) and 0.1 mg/ml heparin (Sigma), after which the cells were incubated in an incubator at 37° C. under 5% CO2. Cells were subcultured a maximum of 8 times before being discarded.
In order to evaluate inhibitory activity of the fumagillin derivative on growth of HUVECs, the inventive compound was dissolved in DMSO and its concentration was adjusted from 10 mM to 1 mM. Cells were aliquotted to 96 well plates at a density of 2×10^3 cells per well and incubated for about 12–24 hours to be properly attached to the plate. Thereafter, the medium was replaced with new medium. The cells were treated with the compound obtained from each of the above examples at various concentration ranges of from 10 μM to […], and cultured for 2–3 days, followed by removing 100 μl of the medium from each well.
Colorimetry was performed to determine the extent of cell growth. The cells on each plate was added with 20 μl of aqueous one solution and then incubated at 37° C. under 5% CO2 for 2 hours. Using a 96-well plate reader, absorption was measured at 490 nm.
As such, a conventional TNP-470 having angiogenesis inhibitory effect was used as a control.
Broadly, the IC50 is the concentration at which inhibition is half-maximal. In turn, `CO[C@@H]1[C@H](OC(=O)CNCCBr)CC[C@]2(CO2)[C@H]1[C@@]1(C)OC1CC=C(C)C` (stereo partly shown) [Ex. 61, 6-O-(2-bromoethylamino)acetyl fumagillol] yielded an IC50 of 2800 ng/mL (≈ 6270 nM).

Staying with this assay, now noted: Homo sapiens, HUVEC, HUVEC growth, cultured 2–3 days with compound, absorption at 490 nm; read-out: IC50.
As to `CCCNCC(=O)O[C@@H]1CC[C@]2(CO2)[C@@H]([C@@]2(C)OC2CC=C(C)C)[C@@H]1OC` (stereo partly shown) [Ex. 43, 6-O-(propylamino)acetyl fumagillol], the IC50 amounted to 2400 ng/mL (≈ 6290 nM).

Take `CCCCNCC(=O)O[C@@H]1CC[C@]2(CO2)[C@@H]([C@@]2(C)OC2CC=C(C)C)[C@@H]1OC` (stereo partly shown) [Ex. 44, 6-O-(1-butylamino)acetyl fumagillol]: the 50% inhibitory concentration (IC50) was 3200 ng/mL (≈ 8090 nM).

As to `CCC(C)NCC(=O)O[C@@H]1CC[C@]2(CO2)[C@@H]([C@@]2(C)OC2CC=C(C)C)[C@@H]1OC` (stereo partly shown) [Ex. 45, 6-O-(sec-butylamino)acetyl fumagillol], the IC50 was found to be 370 ng/mL (≈ 935 nM).

On to `CCC(C)CNCC(=O)O[C@@H]1CC[C@]2(CO2)[C@@H]([C@@]2(C)OC2CC=C(C)C)[C@@H]1OC` (stereo partly shown) [Ex. 46, 6-O-(2-methyl-butylamino)acetyl fumagillol], for which the 50% inhibitory concentration (IC50) was 2600 ng/mL (≈ 6350 nM).

Regarding `CCCCCNCC(=O)O[C@@H]1CC[C@]2(CO2)[C@@H]([C@@]2(C)OC2CC=C(C)C)[C@@H]1OC` (stereo partly shown) [Ex. 48, 6-O-(pentylamino)acetyl fumagillol], the IC50 came to 3000 ng/mL (≈ 7320 nM).

For `CCCC(C)NCC(=O)O[C@@H]1CC[C@]2(CO2)[C@@H]([C@@]2(C)OC2CC=C(C)C)[C@@H]1OC` (stereo partly shown) [Ex. 49, 6-O-(1-methyl-butylamino)acetyl fumagillol], the IC50 came out at 44 ng/mL (≈ 107 nM).

`CCC(CC)NCC(=O)O[C@@H]1CC[C@]2(CO2)[C@@H]([C@@]2(C)OC2CC=C(C)C)[C@@H]1OC` (stereo partly shown) [Ex. 50, 6-O-(1-ethyl-propylamino)acetyl fumagillol]: the concentration for half-maximal inhibition (IC50) stood at 24 ng/mL (≈ 58.6 nM).

For `CCCCC(C)NCC(=O)O[C@@H]1CC[C@]2(CO2)[C@@H]([C@@]2(C)OC2CC=C(C)C)[C@@H]1OC` (stereo partly shown) [Ex. 51, 6-O-(1-methyl-pentylamino)acetyl fumagillol], the 50% inhibitory concentration (IC50) worked out at 32000 ng/mL (≈ 75500 nM).

As for `CCC(C)C(C)NCC(=O)O[C@@H]1CC[C@]2(CO2)[C@@H]([C@@]2(C)OC2CC=C(C)C)[C@@H]1OC` (stereo partly shown) [Ex. 52, 6-O-(1,2-dimethylbutylamino)acetyl fumagillol], the 50% inhibitory concentration (IC50) was found to be 290 ng/mL (≈ 685 nM).

On to `CO[C@@H]1[C@H](OC(=O)CNC(C)C(C)(C)C)CC[C@]2(CO2)[C@H]1[C@@]1(C)OC1CC=C(C)C` (stereo partly shown) [Ex. 53, 6-O-(1,2,2-trimethylpropylamino)acetyl fumagillol], for which the IC50 amounted to 162 ng/mL (≈ 382 nM).

Take `CC/C=C(C)/C=C/CNCC(=O)O[C@@H]1CC[C@]2(CO2)[C@@H]([C@@]2(C)OC2CC=C(C)C)[C@@H]1OC` (stereo partly shown) [Ex. 57, 6-O-(4-methyl-hepta-2,4-dienylamino)acetyl fumagillol]: the 50% inhibitory concentration (IC50) turned out to be 420 ng/mL (≈ 938 nM).

Regarding `CO[C@@H]1[C@H](OC(=O)CNC(C)CCC=C(C)C)CC[C@]2(CO2)[C@H]1[C@@]1(C)OC1CC=C(C)C` (stereo partly shown) [Ex. 58, 6-O-(1,5-dimethyl-4-hexenylamino)acetyl fumagillol], the IC50 was 415 ng/mL (≈ 923 nM).

As to `C#CC(C)(C)NCC(=O)O[C@@H]1CC[C@]2(CO2)[C@@H]([C@@]2(C)OC2CC=C(C)C)[C@@H]1OC` (stereo partly shown) [Ex. 59, 6-O-(1,1-dimethyl-2-propinylamino)acetyl fumagillol], the IC50 stood at 174 ng/mL (≈ 429 nM).

Take `CO[C@@H]1[C@H](OC(=O)CNC#CCl)CC[C@]2(CO2)[C@H]1[C@@]1(C)OC1CC=C(C)C` (stereo partly shown) [Ex. 62, 6-O-(chloroethynylamino)acetyl fumagillol]: the half-inhibitory concentration (IC50) amounted to 340 ng/mL (≈ 854 nM).

In the case of `CO[C@@H]1[C@H](OC(=O)CNC2CC2)CC[C@]2(CO2)[C@H]1[C@@]1(C)OC1CC=C(C)C` (stereo partly shown) [Ex. 63, 6-O-(cyclopropylamino)acetyl fumagillol], the IC50 stood at 0.008 ng/mL (≈ 0.0211 nM).

Consider `CO[C@@H]1[C@H](OC(=O)CNC2CCC2)CC[C@]2(CO2)[C@H]1[C@@]1(C)OC1CC=C(C)C` (stereo partly shown) [Ex. 64, 6-O-(cyclobutylamino)acetyl fumagillol], for which the IC50 came out at 0.07 ng/mL (≈ 0.178 nM).

For the compound `CO[C@@H]1[C@H](OC(=O)CNC2CCCC2)CC[C@]2(CO2)[C@H]1[C@@]1(C)OC1CC=C(C)C` (stereo partly shown) [Ex. 65, 6-O-(cyclopentylamino)acetyl fumagillol], the half-maximal inhibitory concentration (IC50) was 250 ng/mL (≈ 613 nM).

Turning to `CO[C@@H]1[C@H](OC(=O)CNC2CCCCC2)CC[C@]2(CO2)[C@H]1[C@@]1(C)OC1CC=C(C)C` (stereo partly shown) [Ex. 66, 6-O-(cyclohexylamino)acetyl fumagillol], the IC50 was 0.6 ng/mL (≈ 1.42 nM).

In the case of `CO[C@@H]1[C@H](OC(=O)CNC2CCC(C(C)(C)C)CC2)CC[C@]2(CO2)[C@H]1[C@@]1(C)OC1CC=C(C)C` (stereo partly shown) [Ex. 67, 6-O-(4-tert-butyl-cyclohexylamino)acetyl fumagillol], the 50% inhibitory concentration (IC50) was 0.06 ng/mL (≈ 0.126 nM).

Take `CO[C@@H]1[C@H](OC(=O)CNC(C)CN(C)C)CC[C@]2(CO2)[C@H]1[C@@]1(C)OC1CC=C(C)C` (stereo partly shown) [Ex. 68, 6-O-(2-dimethylamino-1-methylethylamino)acetyl fumagillol]: the IC50 turned out to be 240 ng/mL (≈ 565 nM).

`CO[C@@H]1[C@H](OC(=O)CNCC(C)N(C)C)CC[C@]2(CO2)[C@H]1[C@@]1(C)OC1CC=C(C)C` (stereo partly shown) [Ex. 69, 6-O-(2-dimethylamino-propylamino)acetyl fumagillol]: the IC50 is 260 ng/mL (≈ 612 nM).

On to `CO[C@@H]1[C@H](OC(=O)CNCC(C)(C)OC)CC[C@]2(CO2)[C@H]1[C@@]1(C)OC1CC=C(C)C` (stereo partly shown) [Ex. 70, 6-O-(2-methoxy-2-methyl-propylamino)acetyl fumagillol], for which the concentration for half-maximal inhibition (IC50) stood at 178 ng/mL (≈ 418 nM).

In the case of `CO[C@@H]1[C@H](OC(=O)CNCC(C)=O)CC[C@]2(CO2)[C@H]1[C@@]1(C)OC1CC=C(C)C` (stereo partly shown) [Ex. 71, 6-O-(2-oxo-propylamino)acetyl fumagillol], the 50% inhibitory concentration (IC50) came out at 260 ng/mL (≈ 657 nM).

Regarding `CO[C@@H]1[C@H](OC(=O)CNC(C)(C)CC(C)=O)CC[C@]2(CO2)[C@H]1[C@@]1(C)OC1CC=C(C)C` (stereo partly shown) [Ex. 72, 6-O-(1,1-dimethyl-3-oxobutylamino)acetyl fumagillol], the IC50 came out at 330 ng/mL (≈ 754 nM).

Consider `CCOC(=O)CNCC(=O)O[C@@H]1CC[C@]2(CO2)[C@@H]([C@@]2(C)OC2CC=C(C)C)[C@@H]1OC` (stereo partly shown) [Ex. 73, 6-O-(ethyl-2-aminoacetate)acetyl fumagillol], for which the concentration for half-maximal inhibition (IC50) turned out to be 1200 ng/mL (≈ 2820 nM).

With `COC(=O)C(C)NCC(=O)O[C@@H]1CC[C@]2(CO2)[C@@H]([C@@]2(C)OC2CC=C(C)C)[C@@H]1OC` (stereo partly shown) [Ex. 74, 6-O-(alaninemethylesteramino)acetyl fumagillol], the IC50 was 800 ng/mL (≈ 1880 nM).

Turning to `COC(=O)C(NCC(=O)O[C@@H]1CC[C@]2(CO2)[C@@H]([C@@]2(C)OC2CC=C(C)C)[C@@H]1OC)C(C)(C)C` (stereo partly shown) [Ex. 75, 6-O-(methyl-2-amino-3,3-dimethylbutanoate)acetyl fumagillol], the concentration for half-maximal inhibition (IC50) was determined as 2400 ng/mL (≈ 5130 nM).

In the case of `COC(CNCC(=O)O[C@@H]1CC[C@]2(CO2)[C@@H]([C@@]2(C)OC2CC=C(C)C)[C@@H]1OC)OC` (stereo partly shown) [Ex. 77, 6-O-(2,2-dimethoxyethylamino)acetyl fumagillol], the half-inhibitory concentration (IC50) was found to be 330 ng/mL (≈ 772 nM).

As for `CO[C@@H]1[C@H](OC(=O)CCl)CC[C@]2(CO2)[C@H]1[C@@]1(C)OC1CC=C(C)C` (stereo partly shown) [Intermediate, 6-O-(chloro)acetyl fumagillol], the IC50 amounted to 2000 ng/mL (≈ 5570 nM).

As for `CO[C@@H]1[C@H](OC(=O)NC(=O)CCl)CC[C@]2(CO2)[C@H]1[C@@]1(C)O[C@@H]1CC=C(C)C` [TNP-470, reference compound], the IC50 was 29 ng/mL (≈ 72.2 nM).

The same assay, now with this note: Homo sapiens; HUVEC growth, cultured 2–3 days with compound, absorption at 490 nm; read-out: IC50.
For the compound `CO[C@@H]1[C@H](OC(=O)CNC(C(C)C)C(C)C)CC[C@]2(CO2)[C@H]1[C@@]1(C)OC1CC=C(C)C` (stereo partly shown) [Ex. 54, 6-O-(1-isopropyl-2-methylpropylamino)acetyl fumagillol], the IC50 stood at 11 ng/mL (≈ 25.1 nM).

Regarding `C=C(C)CNCC(=O)O[C@@H]1CC[C@]2(CO2)[C@@H]([C@@]2(C)OC2CC=C(C)C)[C@@H]1OC` (stereo partly shown) [Ex. 56, 6-O-(2-methyl-allylamino)acetyl fumagillol], the half-maximal inhibitory concentration (IC50) turned out to be 28 ng/mL (≈ 71.2 nM).

Turning to `C=CCC(NCC(=O)O[C@@H]1CC[C@]2(CO2)[C@@H]([C@@]2(C)OC2CC=C(C)C)[C@@H]1OC)C(=O)OC` (stereo partly shown) [Ex. 76, 6-O-(allylglycinemethylester)acetyl fumagillol], the half-inhibitory concentration (IC50) came to 1490 ng/mL (≈ 3300 nM).
